In patent US20220117867A1, “ANTIMICROBIAL ACTIVITY OF FATTY ACID ESTERS AND COMBINATIONS THEREOF” (SYMRISE AG, priority 2019, published 2022):
In brackets after ≈: the same amount, converted by molar mass. Values belong to the compound of their own block, whether it stands above or below them.

Legend:
Assay type in all cases: cell-based
[1] = tested on: Epidermophyton floccosum; assay: Minimum Inhibitory Concentration (MIC) Method B, DIN 58940; Synergy Index according to Kull; conditions: single substance
Description: (§1) B) Minimum Inhibitory Concentration (MIC) Method B
(§2) 5 ml of the appropriate dilution of the test product is mixed with 0.1 ml of test suspension and mixed well. After the required action times, the mixture was mixed again. Each 0.1 ml were removed and placed in 5 ml of CSL-bouillon without neutralizing agents.
(§3) In order to calculate the synergy index with MIC values, the Kull equation (I) was used as follows:
(§4) SI=(MICmixture×PA)/MICA+(MICmixture×PB)/MICB (I)
SI is the Synergy Index according to Kull
MICA is the MIC value for Substance A
MICB is the MIC value for Substance B
MICmixture is the MIC value for the mixture of substances A and B
PA is the proportion of the substance A in the mixture
PB is the proportion of the substance B in the mixture

[2] = tested on: Corynebacterium xerosis; assay: as above; conditions: Method B (Examples 3, 5, 6), C. xerosis, single substance
Description: as §1, §2, §3, §4

[3] = tested on: Candida albicans; assay: Minimum Inhibitory Concentration (MIC) Method A
Description: (§5) A) Minimum Inhibitory Concentration (MIC) Method A The MIC test is a test on growth inhibition. Estimation of Minimum Inhibitory Concentration (MIC) is executed in 96 well plates. Through the comparison of bacterial growth curves with positive and negative controls via optical density (OD), different concentrations of given test substances are evaluated. Bacteria are cultivated under adjusted conditions based on information of the German Collection of Microorganisms and Cell Cultures (DSMZ) and stored in 50% Glycerol prior to use. Afterwards, the following method was applied: Adding growth medium (according to microorganism) to each well of the microplate. Adding the test-substances in different concentrations, positive controls (water controls only with medium) and negative controls (benchmarks according to organism). Adding the microorganism in a concentration of 10^6 CFU/ml (CFU=colony forming units). Incubation of the microplates at appropriate conditions. Aerobic microorganism: optical density is continuously measured (microplate reader) during incubation. Anaerobic microorganism: incubation in an anaerobic chamber, measurement of the optical density at the end of the incubation, comparison of the results with positive and negative controls. According to resulting growth curves, substance concentrations are labelled either as inhibiting or normal growth and MIC is defined as the lowest concentration where a clear inhibition is visible. Experiments at concentration limits (highest concentration labelled as growth and lowest concentration labelled as inhibiting) are performed at least twice.

[4] = tested on: Corynebacterium xerosis; assay: Minimum Inhibitory Concentration (MIC) Method A; conditions: read-out: MIC
Description: as §5

[5] = tested on: Fusobacterium nucleatum; assay: Minimum Inhibitory Concentration (MIC) Method A
Description: as §5

[6] = tested on: Porphyromonas gingivalis; assay: Minimum Inhibitory Concentration (MIC) Method A
Description: as §5

[7] = tested on: Prevotella intermedia; assay: Minimum Inhibitory Concentration (MIC) Method A
Description: as §5

[8] = tested on: Staphylococcus hominis; assay: Minimum Inhibitory Concentration (MIC) Method A
Description: as §5

[9] = tested on: Aspergillus brasiliensis; assay: Minimum Inhibitory Concentration (MIC) Method A; conditions: read-out: MIC
Description: (§6) A) Minimum Inhibitory Concentration (MIC) Method A
(§7) The MIC test is a test on growth inhibition. Estimation of Minimum Inhibitory Concentration (MIC) is executed in 96 well plates. Through the comparison of bacterial growth curves with positive and negative controls via optical density (OD), different concentrations of given test substances are evaluated.
(§8) Bacteria are cultivated under adjusted conditions based on information of the German Collection of Microorganisms and Cell Cultures (DSMZ) and stored in 50% Glycerol prior to use. Afterwards, the following method was applied:
(§9) Adding growth medium (according to microorganism) to each well of the microplate.
(§10) Adding the test-substances in different concentrations, positive controls (water controls only with medium) and negative controls (benchmarks according to organism).
(§11) Adding the microorganism in a concentration of 10^6 CFU/ml (CFU=colony forming units). Incubation of the microplates at appropriate conditions.
(§12) Aerobic microorganism: optical density is continuously measured (microplate reader) during incubation.
(§13) According to resulting growth curves, substance concentrations are labelled either as inhibiting or normal growth and MIC is defined as the lowest concentration where a clear inhibition is visible. Experiments at concentration limits (highest concentration labelled as growth and lowest concentration labelled as inhibiting) are performed at least twice.

[10] = tested on: Escherichia coli; assay: Minimum Inhibitory Concentration (MIC) Method A; conditions: read-out: MIC
Description: as §6, §7, §8, §9, §10, §11, §12, §13

[11] = tested on: Staphylococcus aureus; assay: Minimum Inhibitory Concentration (MIC) Method A; conditions: read-out: MIC
Description: as §6, §7, §8, §9, §10, §11, §12, §13

[12] = tested on: Staphylococcus epidermidis; assay: Minimum Inhibitory Concentration (MIC) Method A; conditions: read-out: MIC
Description: as §6, §7, §8, §9, §10, §11, §12, §13

[13] = tested on: Fannyhessea vaginae (Atopobium vaginae); assay: Minimum Inhibitory Concentration (MIC) Method B
Description: (§14) B) Minimum Inhibitory Concentration (MIC) Method B Test conditions: Evaluation of bactericidal and fungicidal activity in qualitative suspension test (VAH-standard methods, 04-2015). 5 ml of the appropriate dilution of the test product is mixed with 0.1 ml of test suspension and mixed well. After the required action times, the mixture was mixed again. Each 0.1 ml were removed and placed in 5 ml of CSL-bouillon without neutralizing agents.

[14] = tested on: Gardnerella vaginalis; assay: Minimum Inhibitory Concentration (MIC) Method B
Description: as §14

[15] = tested on: Peptoniphilus lacrimalis; assay: Minimum Inhibitory Concentration (MIC) Method B
Description: as §14

[16] = tested on: Streptococcus agalactiae; assay: Minimum Inhibitory Concentration (MIC) Method B
Description: as §14

[17] = tested on: Streptococcus mutans; assay: Minimum Inhibitory Concentration (MIC) Method B
Description: as §14

[18] = tested on: Trichophyton rubrum; assay: Minimum Inhibitory Concentration (MIC) Method B
Description: as §14

[19] = tested on: Aspergillus brasiliensis; assay: Minimum Inhibitory Concentration (MIC) Method B, DIN 58940; Synergy Index according to Kull; conditions: Method B (Example 5), A. brasiliensis, single substance
Description: as §1
as §14, with “Test” for “B) Minimum Inhibitory Concentration (MIC) Method B Test”
as §3, §4
(§15) The synergistic activity of 3-hydroxypropyl caprylate and glyceryl caprylate on several bacterial and fungal reference strains for application in either Deodorant application or as preservative was determined by measuring minimum inhibitory concentrations (MIC values) according to DIN 58940 and method B (method section above).

[20] = tested on: Escherichia coli; assay: as above; conditions: Method B (Example 5), E. coli, single substance
Description: as §1
as §14, with “Test” for “B) Minimum Inhibitory Concentration (MIC) Method B Test”
as §3, §4, §15

[21] = tested on: Staphylococcus hominis; assay: as above; conditions: Method B (Example 5), S. hominis, single substance
Description: as §1
as §14, with “Test” for “B) Minimum Inhibitory Concentration (MIC) Method B Test”
as §3, §4, §15

[22] = tested on: Candida albicans; assay: Preservative Efficacy Test (method C)
Description: (§16) C) Preservative Efficacy Test
(§17) Test conditions: Sample (1% test substance in adequate formulation (o/w emulsion)) was inoculated with 0.1 ml of the microbial suspensions, homogenized, and incubated at 20° C.-25° C. Colony count was determined after 2, 7, 14, and 28 days of incubation through plating on adequate solid medium.
(§18) 3-hydroxypropyl caprylate was tested in a potential formulation against the microorganisms Escherichia coli, Pseudomonas aeruginosa, Staphylococcus aureus, and Candida albicans using method C. Resulting colony counts are depicted in Table 4.

[23] = tested on: Escherichia coli; assay: Preservative Efficacy Test (method C); conditions: E. coli; for Colony counts: 1% test substance in o/w emulsion; for Relative colony counts: relative to inoculum = 1.0000
Description: as §16, §17, §18

[24] = tested on: Pseudomonas aeruginosa; assay: Preservative Efficacy Test (method C); conditions: P. aeruginosa; for Colony counts: 1% test substance in o/w emulsion; for Relative colony counts: relative to inoculum = 1.0000
Description: as §16, §17, §18

[25] = tested on: Staphylococcus aureus; assay: Preservative Efficacy Test (method C); conditions: S. aureus; for Colony counts: 1% test substance in o/w emulsion; for Relative colony counts: relative to inoculum = 1.0000
Description: as §16, §17, §18

[26] = tested on: human sebaceous glands; assay: Sebum secretion in cultured micro-dissected human sebaceous glands; conditions: human sebaceous glands of Donor 1 and Donor 2; six days culture; different concentrations; vs untreated control
Description: Additional tests were performed with human sebaceous glands in order to verify the modulatory activity of a compound on sebum secretion. For this sebaceous glands had been micro-dissected and cultured with medium. The medium without any supplement served as untreated control. Medium with 5 μM Capsaicin served as positive control. Additionally, culture medium was supplemented with different concentrations of 3-hydroxypropyl caprylate. After six days the sebaceous glands were collected and lipids and proteins quantified. The total lipid amount being representative of sebum production was obtained by normalizing the quantified lipids upon the quantified proteins (i.e. mg of lipids/mg of proteins).

MIC [1]: 15000 µg/mL
Compound: CCCC(O)CO (stereo not shown) [Pentylene Glycol, 1,2-Pentanediol]

MIC [1]: 5000 µg/mL | MIC [2]: 2500 µg/mL
Compound: CCCCCCC(O)CO (stereo not shown) [Caprylyl Glycol, 1,2-Octanediol]

MIC [3]: 500 µg/mL (≈ 2470 µM) | MIC [4]: 500 µg/mL (≈ 2470 µM) | MIC [5]: 250 µg/mL (≈ 1240 µM) | MIC [6]: 250 µg/mL (≈ 1240 µM) | MIC [7]: 125 µg/mL (≈ 618 µM) | MIC [8]: 1000 µg/mL (≈ 4940 µM) | MIC [9]: 1000 µg/mL (≈ 4940 µM) | MIC [10]: 1000 µg/mL (≈ 4940 µM) | MIC [11]: 500 µg/mL (≈ 2470 µM) | MIC [12]: 500 µg/mL (≈ 2470 µM) | MIC [13]: 500 µg/mL (≈ 2470 µM) | MIC [14]: 500 µg/mL (≈ 2470 µM) | MIC [15]: 1000 µg/mL (≈ 4940 µM) | MIC [16]: 10000 µg/mL (≈ 49400 µM) | MIC [17]: 5000 µg/mL (≈ 24700 µM) | MIC [18]: 500 µg/mL (≈ 2470 µM) | MIC [1]: 500 µg/mL | MIC [19]: 1000 µg/mL | MIC [20]: 1000 µg/mL | MIC [21]: 1000 µg/mL
Compound: CCCCCCCC(=O)OCCCO [3-hydroxypropyl caprylate]
Colony counts ([22]; Day 2, 1% test substance in o/w emulsion, inoculum 4200000): 330000 cfu/g formulation | Relative colony counts ([22]; Day 2, relative to inoculum = 1.0000): 0.0786 | Colony counts ([22]; Day 7, 1% test substance in o/w emulsion): >10 cfu/g formulation | Relative colony counts ([22]; Day 7, relative to inoculum = 1.0000): 0.0000 | Colony counts ([22]; Day 14, 1% test substance in o/w emulsion): >10 cfu/g formulation | Relative colony counts ([22]; Day 14, relative to inoculum = 1.0000): 0.0000 | Colony counts ([22]; Day 28, 1% test substance in o/w emulsion): >10 cfu/g formulation | Relative colony counts ([22]; Day 28, relative to inoculum = 1.0000): 0.0000 | Colony counts ([23]; Day 2, inoculum 4500000): 15 cfu/g formulation | Relative colony counts ([23]; Day 2): 0.0000 | Colony counts ([23]; Day 7): >10 cfu/g formulation | Relative colony counts ([23]; Day 7): 0.0000 | Colony counts ([23]; Day 14): >10 cfu/g formulation | Relative colony counts ([23]; Day 14): 0.0000 | Colony counts ([23]; Day 28): >10 cfu/g formulation | Relative colony counts ([23]; Day 28): 0.0000 | Colony counts ([24]; Day 2, inoculum 4400000): >10 cfu/g formulation | Relative colony counts ([24]; Day 2): 0.0000 | Colony counts ([24]; Day 7): >10 cfu/g formulation | Relative colony counts ([24]; Day 7): 0.0000 | Colony counts ([24]; Day 14): >10 cfu/g formulation | Relative colony counts ([24]; Day 14): 0.0000 | Colony counts ([24]; Day 28): >10 cfu/g formulation | Relative colony counts ([24]; Day 28): 0.0000 | Colony counts ([25]; Day 2, inoculum 3500000): 250000 cfu/g formulation | Relative colony counts ([25]; Day 2): 0.0714 fraction of inoculum | Colony counts ([25]; Day 7): >10 cfu/g formulation | Relative colony counts ([25]; Day 7): 0.0000 fraction of inoculum | Colony counts ([25]; Day 14): >10 cfu/g formulation | Relative colony counts ([25]; Day 14): 0.0000 fraction of inoculum | Colony counts ([25]; Day 28): >10 cfu/g formulation | Relative colony counts ([25]; Day 28): 0.0000 fraction of inoculum | relative change in total lipids (mg of lipids/mg of proteins), representative of sebum production [26]: concentration dependent reduction of total lipids

MIC [2]: 1000 µg/mL | MIC [19]: 2500 µg/mL | MIC [20]: 2500 µg/mL | MIC [21]: 1000 µg/mL
Compound: CCCCCCCC(=O)OCC(O)CO (stereo not shown) [glyceryl caprylate, reference compound]

MIC [1]: 10000 µg/mL
Compound: CCCCC(O)CO (stereo not shown) [1,2 Hexanediol]
